In the supplement of paper PMC11061612:

Key:
[1] = tested on: ACHN (Kidney Carcinoma); assay: Bliss excess, mean over the matrix (fraction); higher = more synergy
Method in brief: (§1)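 Cell lines grown in DMEM/F12 or RPMI with 10% FBS were plated in 1536-well plates and held 24 hours at 37°C, 5% CO2 before 72 hours of exposure to two-drug dose matrices, with DMSO typically at 0.2%. CellTiter-Glo 2.0 luminescence gave viability, which was converted to inhibition. Vehicle wells were set to 0 and blank wells to 1. Combination Emax is the second-highest inhibition in the matrix, and Bliss excess is the observed combination effect minus the expected EA + EB − EA·EB, where EA and EB are the single-agent effects.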

[2] = tested on: C-4-I (Cervical Carcinoma); assay: as above
Method in brief: as §1

[3] = tested on: Ca9-22 (Head and Neck Carcinoma); assay: as above
Method in brief: as §1

[4] = tested on: EW-24 (Ewing's Sarcoma); assay: as above
Method in brief: as §1

[5] = tested on: HGC-27 (Gastric Carcinoma); assay: as above
Method in brief: as §1

[6] = tested on: HSC-4 (Oral Cavity Carcinoma); assay: as above
Method in brief: as §1

[7] = tested on: Hs-766T (Pancreatic Carcinoma); assay: as above
Method in brief: as §1

[8] = tested on: KMOE-2 (Acute Myeloid Leukemia); assay: as above
Method in brief: as §1

[9] = tested on: KYSE-450 (Esophageal Squamous Cell Carcinoma); assay: as above
Method in brief: as §1

[10] = tested on: LU-65 (Non-Small Cell Lung Carcinoma); assay: as above
Method in brief: as §1

[11] = tested on: NCI-H358 (Lung Adenocarcinoma); assay: as above
Method in brief: as §1

[12] = tested on: NEC8 (Other Solid Carcinomas); assay: as above
Method in brief: as §1

[13] = tested on: NUGC-3 (Gastric Carcinoma); assay: as above
Method in brief: as §1

[14] = tested on: OE19 (Esophageal Adenocarcinoma); assay: as above
Method in brief: as §1

[15] = tested on: OSC-20 (Oral Cavity Carcinoma); assay: as above
Method in brief: as §1

[16] = tested on: OVCAR-4 (Ovarian Carcinoma); assay: as above
Method in brief: as §1

[17] = tested on: PWR-1E (Non-Cancerous); assay: as above
Method in brief: as §1

[18] = tested on: TGW (Neuroblastoma); assay: as above
Method in brief: as §1

[19] = tested on: VA-ES-BJ (Other Solid Carcinomas); assay: as above
Method in brief: as §1

[20] = tested on: EoL-1-cell (Acute Myeloid Leukemia); assay: combination Emax (second highest fraction inhibited in the dose matrix, 72 h); higher = more inhibition; extreme values may be limits of the assay
Method in brief: as §1
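For Bliss excess, mean over the matrix in this document: after 72 h of two-drug dosing.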

SMILES | Bliss excess [1] | Bliss excess [2] | Bliss excess [3] | Bliss excess [4] | Bliss excess [5] | Bliss excess [6] | Bliss excess [7] | Bliss excess [8] | Bliss excess [9] | Bliss excess [10] | Bliss excess [11] | Bliss excess [12] | Bliss excess [13] | Bliss excess [14] | Bliss excess [15] | Bliss excess [16] | Bliss excess [17] | Bliss excess [18] | Bliss excess [19] | combination Emax [20]
CN(C)CCCOc1ccc(-c2ccc3ncc4c(c3c2)n(C2CCOCC2)c(=O)n4C)cn1 [AZD0156] + C=CCn1c(=O)c2cnc(Nc3ccc(N4CCN(C)CC4)cc3)nc2n1-c1cccc(C(C)(C)O)n1 [AZD1775] (first compound max 1 µM, partner max 1 µM) | 0.022 | -0.0175 | -0.0042 | -0.0804 | 0.0088 | -0.0418 | -0.0232 | -0.039 | -0.0487 | -0.0032 | 0.0011 | 0.0183 | -0.0369 | 0.0012 | -0.0443 | -0.0368 | 0.0144 | -0.0051 | -0.0235 | 0.996
CN(C)CCCOc1ccc(-c2ccc3ncc4c(c3c2)n(C2CCOCC2)c(=O)n4C)cn1 [AZD0156] + CCN(CCO)CCCOc1ccc2c(Nc3cc(CC(=O)Nc4cccc(F)c4)[nH]n3)ncnc2c1 [AZD2811] (first compound max 1 µM, 7x7, partner max 1 µM) | -0.0232 | -0.0074 | -0.0056 | 0.0199 | -0.0352 | -0.0348 | -0.0411 | 0.0096 | -0.0353 | 0.0441 | -0.0214 | 0.0233 | 0.0312 | 0.0224 | 0.0224 | -0.0148 | 0.0831 | -0.0141 | 0.0248 | 0.999
CN(C)CCCOc1ccc(-c2ccc3ncc4c(c3c2)n(C2CCOCC2)c(=O)n4C)cn1 [AZD0156] + C[C@@H]1COCCN1C2=NC(=NC(=C2)C3(CC3)[S@](=N)(=O)C)C4=C5C=CNC5=NC=C4 [AZD6738] (first compound max 1 µM, 7x7, partner max 10 µM) | -0.0212 | 0.0071 | 0.0218 | -0.0225 | 0.0357 | -0.0461 | 0.0079 | -0.0252 | -0.0099 | 0.021 | 0.0219 | 0.072 | 0.064 | 0.0277 | -0.0085 | 0.0213 | -0.0357 | 0.0307 | 0.0085 | 0.987
CN(C)CCCOc1ccc(-c2ccc3ncc4c(c3c2)n(C2CCOCC2)c(=O)n4C)cn1 [AZD0156] + O=C(c1cc(Cc2n[nH]c(=O)c3ccccc23)ccc1F)N1CCN(C(=O)C2CC2)CC1 [Olaparib] (first compound max 3 µM, partner max 3 µM) | 0.0728 | 0.0867 | 0.132 | -0.0624 | 0.0997 | 0.0226 | -0.0741 | 0.0564 | -0.0054 | 0.0033 | -0.0175 | 0.104 | 0.0093 | 0.13 | 0.0433 | -0.0137 | 0.286 | 0.106 | -0.0267 | 0.732
C=CCn1c(=O)c2cnc(Nc3ccc(N4CCN(C)CC4)cc3)nc2n1-c1cccc(C(C)(C)O)n1 [AZD1775] + C1CN(CCC1(C(=O)N[C@@H](CCO)C2=CC=C(C=C2)Cl)N)C3=NC=NC4=C3C=CN4 [Capivasertib] (first compound max 3 µM, partner max 3 µM) | -0.0283 | 0.0113 | -0.0236 | -0.0878 | 0.0785 | 0.0018 | -0.0513 | 0.0273 | -0.0843 | -0.0688 | -0.0375 | 0.013 | 0.0143 | 0.0192 | -0.0196 | -0.0627 | -0.0165 | -0.0542 | -0.0037 | 1
C=CCn1c(=O)c2cnc(Nc3ccc(N4CCN(C)CC4)cc3)nc2n1-c1cccc(C(C)(C)O)n1 [AZD1775] + C[C@@H]1COCCN1C2=NC(=NC(=C2)C3(CC3)[S@](=N)(=O)C)C4=C5C=CNC5=NC=C4 [AZD6738] (first compound max 1 µM, partner max 10 µM) | -0.0184 | 0.0088 | -0.0002 | -0.0427 | 0.118 | -0.0155 | -0.0217 | 0.0308 | 0.0809 | 0.0327 | -0.0219 | 0.163 | 0.0683 | 0.0514 | 0.0026 | 0.0352 | 0.0106 | 0.0606 | 0.0568 | 1
C=CCn1c(=O)c2cnc(Nc3ccc(N4CCN(C)CC4)cc3)nc2n1-c1cccc(C(C)(C)O)n1 [AZD1775] + O=C(c1cc(Cc2n[nH]c(=O)c3ccccc23)ccc1F)N1CCN(C(=O)C2CC2)CC1 [Olaparib] (first compound max 1 µM, partner max 10 µM) | -0.0445 | 0.0103 | -0.0664 | -0.0708 | 0.0224 | -0.0337 | 0.0002 | -0.0248 | -0.0897 | -0.0598 | -0.0184 | 0.0029 | -0.0798 | -0.0561 | -0.0205 | 0.0249 | -0.0175 | -0.0383 | -0.0424 | 0.999
CCN(CCO)CCCOc1ccc2c(Nc3cc(CC(=O)Nc4cccc(F)c4)[nH]n3)ncnc2c1 [AZD2811] + C=CCn1c(=O)c2cnc(Nc3ccc(N4CCN(C)CC4)cc3)nc2n1-c1cccc(C(C)(C)O)n1 [AZD1775] (first compound max 1 µM, partner max 1 µM) | 0.0555 | 0.0264 | 0.027 | 0.0045 | -0.0176 | -0.0467 | -0.0445 | -0.0181 | -0.0206 | -0.0557 | -0.0312 | 0.0471 | 0.0104 | -0.0152 | -0.0449 | 0.0107 | 0.118 | -0.0083 | 0.0263 | 1
CCN(CCO)CCCOc1ccc2c(Nc3cc(CC(=O)Nc4cccc(F)c4)[nH]n3)ncnc2c1 [AZD2811] + C[C@@H]1COCCN1C2=NC(=NC(=C2)C3(CC3)[S@](=N)(=O)C)C4=C5C=CNC5=NC=C4 [AZD6738] (first compound max 1 µM, 7x7, partner max 10 µM) | -0.0369 | -0.0263 | 0.0323 | -0.104 | -0.0885 | -0.0687 | -0.0734 | -0.032 | -0.0621 | -0.0777 | 0.0096 | 0.0487 | 0.004 | -0.0264 | 0.0279 | -0.0179 | -0.0472 | -0.0211 | -0.0217 | 1
CCN(CCO)CCCOc1ccc2c(Nc3cc(CC(=O)Nc4cccc(F)c4)[nH]n3)ncnc2c1 [AZD2811] + O=C(c1cc(Cc2n[nH]c(=O)c3ccccc23)ccc1F)N1CCN(C(=O)C2CC2)CC1 [Olaparib] (first compound max 1 µM, 7x7, partner max 10 µM) | 0.0023 | 0.0328 | 0.0109 | 0.0173 | -0.0122 | -0.0347 | -0.0415 | 0.0545 | -0.0135 | 0.0014 | -0.063 | 0.0116 | 0.0181 | 0.0454 | -0.0196 | 0.0234 | 0.0243 | -0.0236 | 0.0206 | 1
CN(CCO)CC[C@H](CSc1ccccc1)Nc1ccc(S(=O)(=O)NC(=O)c2ccc(N3CCC([C@@H](O)c4ccccc4-c4ccc(Cl)cc4)CC3)cc2)cc1S(=O)(=O)C(F)(F)F [AZD4320] + CN(C)CCCOc1ccc(-c2ccc3ncc4c(c3c2)n(C2CCOCC2)c(=O)n4C)cn1 [AZD0156] (first compound max 1 µM, 7x7, partner max 1 µM) | -0.0045 | -0.0024 | -0.0338 | -0.0096 | -0.064 | -0.0579 | -0.087 | 0.0446 | -0.0485 | -0.016 | -0.0101 | -0.0167 | -0.0477 | -0.086 | -0.0595 | -0.0155 | -0.0208 | -0.0068 | -0.0379 | 1
COc1nnc2ccc(N3CCC(c4ccc(OCCN5CCN(C)C(=O)[C@H]5C)cc4)CC3)nn12 [AZD5153] + C=CCn1c(=O)c2cnc(Nc3ccc(N4CCN(C)CC4)cc3)nc2n1-c1cccc(C(C)(C)O)n1 [AZD1775] (first compound max 1 µM, partner max 1 µM) | -0.0396 | -0.109 | -0.0453 | -0.0125 | -0.0229 | -0.0852 | -0.0369 | 0.0656 | -0.0699 | -0.0806 | -0.113 | -0.0352 | -0.0249 | -0.0441 | 0.0068 | -0.0935 | -0.127 | -0.0689 | 0.0076 | 1
Cc1c2c(nn1C)CSCc1cc(n(C)n1)CSc1cc(c3ccccc3c1)OCCCc1c(C(=O)O)n(C)c3c-2c(Cl)ccc13 [AZD5991] + C[C@@H]1COCCN1C2=NC(=NC(=C2)C3(CC3)[S@](=N)(=O)C)C4=C5C=CNC5=NC=C4 [AZD6738] (first compound max 1 µM, 7x7, partner max 10 µM) | -0.0008 | 0.0416 | 0.0573 | -0.0078 | 0.0562 | -0.0403 | 0.0201 | 0.0168 | 0.0407 | -0.0405 | -0.0334 | 0.1 | 0.0119 | – | 0.0592 | -0.0472 | 0.005 | 0.0167 | 0.0023 | 1
Cc1c2c(nn1C)CSCc1cc(n(C)n1)CSc1cc(c3ccccc3c1)OCCCc1c(C(=O)O)n(C)c3c-2c(Cl)ccc13 [AZD5991] + C[C@@H](Nc1cc(F)cc(F)c1)c1cc(C(=O)N(C)C)cc2c(=O)cc(N3CCOCC3)oc12 [AZD8186] (first compound max 1 µM, 7x7, partner max 3 µM) | 0.0607 | 0.0655 | -0.012 | -0.0426 | 0.0246 | -0.063 | -0.111 | -0.0378 | – | -0.0428 | -0.0519 | 0.008 | 0.0052 | 0.043 | -0.0335 | 0.0433 | -0.0134 | -0.0155 | 0.0068 | 1
CCc1c2c(nc3ccc(O)cc13)-c1cc3c(c(=O)n1C2)COC(=O)[C@]3(O)CC [SN-38] + O=C(c1cc(Cc2n[nH]c(=O)c3ccccc23)ccc1F)N1CCN(C(=O)C2CC2)CC1 [Olaparib] (first compound max 0.3 µM, 7x7, partner max 10 µM) | 0.0198 | 0.055 | 0.0176 | 0.0359 | -0.0468 | – | 0 | 0.0555 | 0.0808 | 0.0282 | 0.0029 | 0.0473 | – | 0.0026 | -0.0034 | -0.0234 | – | 0.06 | -0.0117 | 0.99
